Series [1] deals with T1, ERα (Homo sapiens, UniProt P03372).
T1 construct: endogenous in cells; host or cells: MCF7 (also MCF7 engineered to express Cas9)
T1 sequence (P03372 1-595): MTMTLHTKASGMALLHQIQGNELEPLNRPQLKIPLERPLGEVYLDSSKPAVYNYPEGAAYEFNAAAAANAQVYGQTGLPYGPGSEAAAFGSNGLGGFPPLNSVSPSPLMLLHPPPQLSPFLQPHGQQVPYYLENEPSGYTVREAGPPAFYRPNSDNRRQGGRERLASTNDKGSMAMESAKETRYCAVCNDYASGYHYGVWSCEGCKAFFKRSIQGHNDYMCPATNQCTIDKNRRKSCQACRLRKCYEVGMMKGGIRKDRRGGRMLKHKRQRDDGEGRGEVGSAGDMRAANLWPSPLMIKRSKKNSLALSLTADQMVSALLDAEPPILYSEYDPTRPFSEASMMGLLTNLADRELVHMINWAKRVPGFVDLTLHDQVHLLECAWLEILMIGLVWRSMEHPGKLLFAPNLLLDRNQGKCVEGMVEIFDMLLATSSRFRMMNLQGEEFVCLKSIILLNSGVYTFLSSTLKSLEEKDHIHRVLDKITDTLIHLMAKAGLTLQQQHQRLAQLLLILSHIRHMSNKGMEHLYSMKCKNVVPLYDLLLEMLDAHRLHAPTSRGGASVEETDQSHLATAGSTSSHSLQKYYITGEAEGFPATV
The experiment in a line: SILAC pulse-chase and mass spectrometry, ERα turnover in MCF7 cells. The settings on record: 1 µM. The series is classed as cell-based. On the procedure:
MCF7 cells were grown for a minimum of 2 passages in SILAC media (Pierce, Thermo Scientific) containing ^13C6^15N4 arginine and ^13C6 lysine. The extent of stable isotope incorporation was determined by mass spectrometry. For the assay, cells were plated at 1.2 x 10^6 cells/well into 6-well TC-treated plates in media containing 5% double charcoal stripped FBS^13,C6^15N4 arginine and ^13C6^15N2 lysine for 24 hours. At time 0, the media containing isotopically heavy arginine and lysine was replaced with media containing unlabelled equivalents plus either AZ’6421, fulvestrant or DMSO control. […] Equal concentrations of timecourse lysates were mixed with an internal standard lysate derived from ^[…] lysine labelled MCF7 cells. ER protein was immunoprecipitated overnight at 4 °C with an ER antibody (Rabbit clone SP1, Thermo Scientific) and immobilised onto a U-bottomed Nunc MaxiSorp plate (Thermo Scientific). Wells were sequentially washed with each of the following; RIPA buffer, PBS and water. Samples were digested by addition of 30 μL well sequencing grade trypsin (Promega) in 50 mM ammonium bicarbonate at 37 °C for a minimum of 16 hours. The resultant peptide samples were acidified and analysed by selected reaction monitoring (SRM) mass spectrometry. Protein half-life was determined using the one-phase exponential decay function in GraphPad PRISM where Y = (Y0 - Plateau)*exp(-K*X) + Plateau.

For another series, the system named is CAMA1 cells. The experiment in a line: Cell proliferation assay (Sytox Green), CAMA1. It counts as cell-based. The settings on record: Homo sapiens, CAMA-1, 144 h; CAMA1, 6 days; read-out: growth inhibition IC50. On the procedure:
Cell proliferation was assessed by measuring live cell numbers using the Sytox Green assay. MCF7 and CAMA1 cells were seeded in 96-well clear-bottom black microplates (Costar) at 4x10^3 and 8x10^3 cells per well, respectively, based on the doubling time of each cell line. Plates were incubated at 37 °C, 5% CO2 for 24 hours prior to being treated with DMSO, AZ’6421 or fulvestrant in a 10-point concentration range, with a final DMSO concentration of 0.1%. A single plate was left untreated, designated a Day 0 plate. The number of live cells was determined at Day 0 and Day 7 using the Sytox green assay. Briefly, 5 mM Sytox green nucleic acid dye (Invitrogen) was diluted 1:2500 in 500 mM tris-buffered saline (TBS) with ethylenediaminetetraacetic acid (EDTA) and 7 μL was added per well. Plates were then incubated in the dark at room temperature for 1 hour and the number of green cells in each well (dead cells) was measured using an Acumen Explorer high-throughput cell imager (TTP Labtech). Next, 14 μL of 0.25% w/v Saponin in TBS/EDTA solution was added overnight to permeabilize the cells, permitting a total cell count. The number of live cells was calculated by subtracting the dead cell count from the total cell count. The data obtained were then used to perform curve fitting analysis using GraphPad Prism. Average cell counts from the Day 0 plate were used to determine 0% cell growth. […]

Series [2] can be described thus: Experimental PSA (ePSA), chromatographic method. It counts as physicochemical.
Series [3] deals with T1, ERα. Kind of series: CRISPR VHL knock out, ERα imaging in MCF7 Cas9 cells. It counts as cell-based. Conditions: MCF7 Cas9, 24 h. As for the experimental part:
Chemically synthesised Edit-R crRNAs targeting VHL and ESR1 were purchased from Horizon Discovery (Cambridge, UK). Equal volumes of 4 crRNAs targeting each individual gene were pooled and then duplexed at a 1:1 ratio in 10 mM Tris pH7.4 buffer with tracrRNA (Horizon, U-002000-50) at room temperature. MCF7 cells were engineered to express cas9 under TetON promotor from the endogenous AAVS1 locus as described previously. Doxycycline-inducible Cas9 is linked via the cleavable T2A peptide to BFP enabling the identification of Cas9-positive cells by microscopy. MCF7 cas9 cells were cultured in RPMI phenol red free (Sigma) supplemented with 10% FBS and 1X GlutaMax (both Gibco). 72 h prior to reverse transfection, cas9 expression was induced by the addition 15 ng/mL doxycycline (Sigma) to the growth media.
MCF7 cells were reverse transfected with the crRNA:tracrRNA pools at 25 nM final concentration using Lipofectamine® RNAiMAX transfection reagent (Thermo Fisher): First crRNA:tracrRNA pools were dispensed into 384-well assay plates (Greiner, 781090), and incubated with 10 µL serum-free DMEM (Sigma) supplemented with 1% Lipofectamine RNAiMAX for 20 minutes at room temperature. […] Following image acquisition, analysis was completed using the Columbus Image Analysis platform (Perkin Elmer) to quantify ESR1 levels in cas9-positive cells. […]

The source of these data is PMC11091220, “Metabolism-driven in vitro/in vivo disconnect of an oral ERɑ VHL-PROTAC” (Communications Biology, 2024).

Each structure is given as a SMILES string. Where “and” joins values, the source holds several entries; their conditions need not be identical. Equal values may be shown once.

Take `Cc1ncsc1-c1ccc(CNC(=O)[C@@H]2C[C@@H](O)CN2C(=O)[C@@H](NC(=O)COCCCOCCCOc2cc(F)c([C@@H]3c4[nH]c5ccccc5c4C[C@@H](C)N3CC(C)(C)F)c(F)c2)C(C)(C)C)cc1` [Compound 5]: the “% heavy (ERα heavy peptide)” value at ERα [1] (Time 0, MCF7) was 100.0%; on ERα [1] (Time 0.5, listed as AZ'6421), 51.8% and 84.4% and 43.4%; at ERα [1] (Time 1, listed as AZ'6421) it was 24.8% and 28.9% and 24.0%; at ERα [1] (Time 2, listed as AZ'6421), 13.8% and 13.6% and 9.7%; on ERα [1] (Time 4, listed as AZ'6421), 5.2% and 6.5% and 4.4%; on ERα [1] (Time 7, listed as AZ'6421), 3.1% and 4.5% and 3.3%. In addition, the “% heavy (ERα heavy peptide)” value at ERα [1] (Time 24, listed as AZ'6421) was 3.2% and 3.4% and 2.7%; on ERα [1] (Time 48, listed as AZ'6421), 3.5% and 3.4% and 2.6%. For the same molecule, the IC50 in the series on CAMA1 cells is 0.2 nM. This molecule also displayed an EPSA in series [2] of 98 A^2. For the same molecule, the “effect of VHL knockout on ER degradation” value on ERα [3] is recorded as “partially reduced”.

Broadly, the IC50 is the concentration needed to halve the response being measured.
